{
  "source": "patent US8822509B2",
  "about": "“Pain-relieving compositions and uses therefor” (priority 2006, dated 2014)",
  "key": {"[1]": {"system": "hindpaws of control non-diabetic rats", "test": "Antinociception by von Frey PWT in control non-diabetic rats", "format": "in vivo, Wistar rats", "settings": "single s.c. bolus; morphine 1.8-21.4 μmol/kg, Compound 1 2-20 fmol/kg", "protocol": "Briefly, baseline PWTs were determined for both hindpaws prior to each antinociceptive testing session in the non-diabetic control group at week 0 as well as in groups of STZ-diabetic rats at 10, 14 and 24 wks.\nThe PWT vs time data were normalized by subtracting the pre-dosing baseline PWT values for each individual rat to obtain ΔPWT values as follows: Normalized (Δ)PWT value=Post-treatment PWT value−PWT value prior to treatment.\nΔPWT versus time curves were then constructed. Trapezoidal integration was used to estimate ΔPWT AUC values for individual rats in the non-diabetic and STZ-diabetic rat treatment groups. ΔPWT AUC versus dose curves were constructed and GraphPad™ Prism was used to estimate the ˜ED50 values."}, "[2]": {"system": "systolic blood pressure of normotensive non-diabetic Wistar rats", "test": "Systolic blood pressure (tail cuff) in normotensive rats", "format": "in vivo", "protocol": "Sedation was induced by the intraperitoneal administration of Zoletil® (tiletamine 15 mg kg^−1 and zolazepam 15 mg kg^−1). Using a tail pulse transducer (MLT1010) and an inflatable tail cuff with a Capto SP844 physiological pressure transducer (MLT844/D), systolic blood pressure was recorded via a PowerLab data acquisition unit (ADInstruments, Sydney, Australia). Tails were warmed with lukewarm water prior to each blood pressure reading to increase peripheral circulation so as to facilitate blood pressure recordings using the tail cuff method.\nThis study was designed to assess the effects of single s.c. bolus doses of the furoxan NO donor, Compound 1, relative to vehicle (DMSO:water, 90:10) on systolic blood pressure in normotensive, non-diabetic, adult male Wistar rats. Single bolus doses of Compound 1 were administered by s.c. injection into the back of the neck of adult male normotensive, non-diabetic Wistar rats in the dose range, 80 fmol/kg to 80 lμmol/kg. Specifically, the doses of Compound 1 tested were 80 fmol/kg (n=3), 800 pmol/kg (n=8), 8 nmol/kg (n=6), 800 nmol/kg (n=4), 8 μmol/kg (n=4), 80 μmol/kg (n=3)."}, "[3]": {"molecular_target": "T1, μ-opioid receptors (MOP receptors) (Mus musculus, UniProt P42866)", "T1 construct": "expressed in transfected cells; host or cells: HEK293", "T1 sequence (P42866 whole entry)": "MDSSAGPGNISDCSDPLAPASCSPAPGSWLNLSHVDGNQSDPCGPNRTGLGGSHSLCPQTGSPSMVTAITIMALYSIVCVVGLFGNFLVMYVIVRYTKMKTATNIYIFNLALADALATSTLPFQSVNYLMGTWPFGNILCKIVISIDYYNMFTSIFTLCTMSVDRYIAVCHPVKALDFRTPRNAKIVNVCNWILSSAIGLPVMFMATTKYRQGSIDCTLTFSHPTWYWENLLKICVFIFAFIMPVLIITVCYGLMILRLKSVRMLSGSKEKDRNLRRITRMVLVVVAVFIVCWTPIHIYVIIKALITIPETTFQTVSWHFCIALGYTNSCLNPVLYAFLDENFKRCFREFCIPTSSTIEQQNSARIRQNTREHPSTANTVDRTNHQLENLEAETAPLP", "format": "cell-based", "settings": "2% βCD 1 h 37° C.; reversed by βCD-cholesterol complexes", "protocol": "Briefly, HEK-MOP cells were pre-incubated with 2% (2-hydroxypropyl)-β-cyclodextrin (βCD) for 1 h at 37° C. to deplete cholesterol from caveloae in the cell membrane. Cells were washed with DMEM and then utilized in the forskolin-stimulated cAMP assay as described above. […] Cells were washed with DMEM and then utilized in the forskolin-stimulated cAMP assay as described above."}, "MOP receptor": {"molecular_target": "T2, MOP receptor (Mus musculus, UniProt P42866)", "T2 construct": "expressed in transfected cells; host or cells: HEK293 (membranes of MOP-HEK cells)", "T2 sequence (P42866 whole entry)": "as above", "test": "Displacement of specific binding of [3H]-DAMGO from membranes of MOP-transfected HEK293 cells", "protocol": "A binding assay was performed to determine whether Compound 1 binds at the MOP receptor.\nStably transfected MOP-HEK cells were plated in a 3×10 cm dish and washed with (3×5 mL) 50 mM Tris-HCl (pH 7.4) when sufficiently confluent. The cells were scraped off the dish in 1.5 mL 50 mM Tris-HCl (pH 7.4) using a transfer pipette and place in 15 mL falcon tubes. The cells were sonicated for a 5 second burst and placed on ice. The protein concentration was estimated. The cells were transferred to a 1.5 mL eppendorf tube and centrifuged at 18,000 rcf for 30 minutes at 4° C. The supernatant was removed and the cells resuspended in 50 mM Tris-HCl (pH 7.4) and 1 mg/mL BSA. An aliquot containing 30-50 μg/200 μL protein was taken and [^3H]DAMGO was added (200 μL in Tris-HCl, pH 7.4) with varying concentrations of unlabelled [D-Ala^2, N-Me-Phe^4, Gly^5-ol]-enkephalin acetate (DAMGO) or Compound 1 (200 μL in Tris-HCl, pH 7.4), total volume 600 μL. The solution was incubated for 1 hour at room temperature with slow rotation."}, "[4]": {"system": "cGMP formation in HEK-MOP cells", "test": "cGMP levels in MOP-transfected HEK cells (AlphaScreen)", "format": "cell-based", "protocol": "For assessment of cGMP levels in MOP-transfected HEK cells, the methods used were similar to those described in Example 6 with the exception that forskolin was omitted from the incubations. cGMP levels were quantified using AlphaScreen detection kits according to the manufacturer's instructions. Briefly, 5 μL aliquots of the cell suspension were added to individual wells containing 5 μL aliquots of test or control article solutions at the concentration of interest in triplicates in 384-well plates and incubated for 30 min at 37° C. cGMP standard solutions were serially diluted in stimulation buffer to give concentrations in the range of 5×10^−10-5×10^−6 M and were added at 10 μL/well. After cells were lysed with lysis buffer, 5 μL aliquots of acceptor bead mix (10 μl/mL of acceptor beads and 1/3000 anti-cGMP antibody for cGMP detection in lysis buffer) were added to each well. After plates were incubated in the dark at room temperature for 60 min, 5 μL aliquots of donor bead mix (10 μL/mL of donor beads and 0.3 nM biotinylated cGMP in lysis buffer) were added per well and plates were incubated for 16 h in the dark at room temperature. […] was measured using an Envision Multilabel Plate Reader (PerkinElmer Life Sciences)."}, "STZ-diabetic rats": {"system": "STZ-diabetic rats", "test": "Tolerance development (7-day s.c. infusion, 2-day washout) in STZ-diabetic rats, von Frey PWT", "format": "in vivo"}, "[5]": {"system": "tactile allodynia in 14-18 week STZ-diabetic rats", "test": "Naloxone or ODQ pre-treatment before test article in 14-18 week STZ-diabetic rats, von Frey PWT", "format": "in vivo, Wistar rats"}, "[6]": {"molecular_target": "δ-opioid receptors (DOP receptors) (Mus musculus, UniProt P32300)", "sequence (P32300 whole entry)": "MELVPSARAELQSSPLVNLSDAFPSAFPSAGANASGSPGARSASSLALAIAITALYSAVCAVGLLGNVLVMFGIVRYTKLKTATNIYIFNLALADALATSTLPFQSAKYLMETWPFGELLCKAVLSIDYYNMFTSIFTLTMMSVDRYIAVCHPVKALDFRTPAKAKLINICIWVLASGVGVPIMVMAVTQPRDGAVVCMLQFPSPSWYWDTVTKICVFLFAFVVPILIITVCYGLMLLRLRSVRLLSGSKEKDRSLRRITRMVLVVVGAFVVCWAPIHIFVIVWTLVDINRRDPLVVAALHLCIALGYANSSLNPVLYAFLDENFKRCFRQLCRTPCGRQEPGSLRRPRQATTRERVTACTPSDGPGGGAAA", "test": "Forskolin-stimulated cAMP responses in DOP-transfected HEK293 cells", "settings": "DOP-transfected HEK293, entire concentration range tested", "procedure": "(§1) Non-transfected HEK293 cells were used as a control. Transfected HEK293 cells were maintained in Dulbecco's Modified Eagle's Medium (DMEM) supplemented with 10% fetal bovine serum (FBS) and geneticin (1 mg/mL). Non-transfected HEK293 cells were maintained in DMEM supplemented with 10% FBS.\n(§2) The functional interaction between opioids and opioid-like compounds and specific opioid G-protein-coupled receptors (GPCRs) was assessed by measuring changes in intracellular cAMP levels relative to basal levels. The Alphascreen cAMP functional assay measures agonist and antagonist activity of GPCRs by stimulating cells to either increase or decrease intracellular cAMP levels. The assay was performed using an Alphascreen cAMP kit according to the manufacturer's instructions. […]\n(§3) Detection of cAMP is based on the competition between intracellular cAMP and biotinylated cAMP linked streptavidin-coated donor beads for anti-cAMP conjugated acceptor beads. When the donor and acceptor beads are in close proximity visible light emitted at 520-620 nm is detected using the Envision multilabel plate reader. […]\n(§4) The assay performance was optimized by using cells at low passage number and at 70-90% confluence. […] The cell concentration was determined using a haemocytometer. […] Note that the cell number will influence the cAMP levels measured before (basal) and after adenylyl cyclase activation. […]"}, "[7]": {"molecular_target": "κ-opioid receptors (KOP receptors) (Mus musculus, UniProt P33534)", "sequence (P33534 whole entry)": "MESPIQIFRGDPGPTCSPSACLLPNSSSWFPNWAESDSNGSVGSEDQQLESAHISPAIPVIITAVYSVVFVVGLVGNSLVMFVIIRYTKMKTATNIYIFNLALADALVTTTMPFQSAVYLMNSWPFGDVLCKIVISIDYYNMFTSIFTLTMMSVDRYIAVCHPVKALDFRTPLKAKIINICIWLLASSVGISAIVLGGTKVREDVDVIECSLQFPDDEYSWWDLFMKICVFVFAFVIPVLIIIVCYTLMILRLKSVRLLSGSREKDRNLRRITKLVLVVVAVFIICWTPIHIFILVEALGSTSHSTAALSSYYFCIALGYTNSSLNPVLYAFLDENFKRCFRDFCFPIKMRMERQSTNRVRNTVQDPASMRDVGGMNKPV", "test": "Forskolin-stimulated cAMP responses in KOP-transfected HEK293 cells", "settings": "KOP-transfected HEK293, entire concentration range tested", "procedure": "as §1, §2, §3, §4"}, "[8]": {"system": "non-transfected HEK293 cells", "test": "Forskolin-stimulated cAMP responses in non-transfected HEK293 cells", "settings": "non-transfected HEK293, entire concentration range tested", "procedure": "as §1, §2, §3, §4"}, "[9]": {"settings": "STZ-diabetic rats, second bolus Compound 1 800 pmol/kg after 2-day washout"}, "[10]": {"settings": "naïve STZ-diabetic rats, first s.c. bolus"}},
  "note": "Entries after “also recorded” stand apart in the source; their conditions may differ.",
  "data": [
    {"smiles": "Cc1c(C=O)no[n+]1[O-]", "note": "[Compound 1, 4-formyl-3-methyl-1,2,5-oxadiazole-2-oxide]", "values": [
      {"measurement": "antinociception in the hindpaws of control non-diabetic rats", "setting": "[1]", "value": "dose-dependent antinociception"},
      {"measurement": "effect on systolic blood pressure", "setting": "[2]; 80 μmol/kg s.c., 30 min post-dosing vs pre-dosing baseline", "value": "decreased significantly; also recorded: significantly reduced systolic blood pressure"},
      {"measurement": "mean (±SEM) systolic blood pressure at time of peak effect", "setting": "[2]; 80 μmol/kg s.c., 30 min post-dosing, pre-dose 111.3 (±1.5)", "value": "79.8 (±0.5) mm Hg"},
      {"measurement": "mean systolic blood pressure", "setting": "[2]; 80 μmol/kg s.c., 1 h post-dosing", "value": "112.6±0.4", "unit": "mm Hg"},
      {"measurement": "effect on systolic blood pressure", "setting": "[2]; single s.c. bolus 80 fmol/kg to 8 μmol/kg, up to 1 h", "value": "no significant effects"},
      {"measurement": "effect of lipid raft/caveolae depletion on cAMP effects", "setting": "[3]", "value": "inhibited the effects of Compound 1; also recorded: sensitive to removal of lipid rafts/caveolae"},
      {"measurement": "binding to MOP receptors ([3H]-DAMGO displacement)", "setting": "MOP receptor", "value": "does not bind significantly"},
      {"measurement": "cGMP Activity (% of basal cGMP response)", "setting": "[4]; Compound 1, 1 mM", "value": "159 + 20%"},
      {"measurement": "cGMP Activity (% of basal cGMP response)", "setting": "[4]; Compound 1, 1 mM + L-Cysteine 5 mM", "value": "185 + 34%"},
      {"measurement": "fold increase in cGMP activity with L-cysteine", "setting": "[4]; Compound 1, 1 mM + L-Cysteine 5 mM vs alone", "value": "(1.2 fold increase)"},
      {"measurement": "stimulation of cGMP formation", "setting": "[4]; HEK-MOP cells, presence and absence of L-cysteine (5 mM)", "value": "comparatively weak stimulation of cGMP formation"},
      {"measurement": "tolerance after 7-day s.c. infusion", "setting": "STZ-diabetic rats; STZ-diabetic rats", "value": "completely tolerant"},
      {"measurement": "anti-allodynia after second bolus (tolerance status)", "setting": "STZ-diabetic rats; STZ-diabetic rats, after 2-day washout, morphine 10.5 μmol/kg, Compound 1 800 pmol/kg", "value": "significant reversal of tolerance"},
      {"measurement": "mean duration of action", "setting": "STZ-diabetic rats; [9]", "value": "2 to 3", "unit": "h"},
      {"measurement": "time of peak anti-allodynia post-dosing", "setting": "STZ-diabetic rats; [9]", "value": "~1", "unit": "h"},
      {"measurement": "mean duration of action", "setting": "STZ-diabetic rats; [10]", "value": "~4", "unit": "h"},
      {"measurement": "time of peak anti-allodynia post-dosing", "setting": "STZ-diabetic rats; [10]", "value": 1, "unit": "h"},
      {"measurement": "mean (±SEM) peak PWT", "setting": "STZ-diabetic rats; naïve STZ-diabetic rats, Compound 1 800 pmol/kg, morphine 10.4 μmol/kg s.c. bolus", "value": "11.6 (±0.6) g"},
      {"measurement": "effect of ODQ pre-treatment on anti-allodynia", "setting": "[5]; ODQ 53.4 μmol/kg s.c. 60 min before Compound 1 800 pmol/kg s.c.", "value": "significantly attenuated from 45 minutes onwards; also recorded: partially sensitive"},
      {"measurement": "effect of naloxone pre-treatment on anti-allodynia (ΔPWT AUC)", "setting": "[5]; naloxone 1.25 μmol/kg s.c. 10 min before Compound 1 800 pmol/kg or morphine 7 μmol/kg s.c.", "value": "did not significantly attenuate; also recorded: naloxone insensitive"},
      {"measurement": "inhibition of forskolin-stimulated cAMP formation", "setting": "[6]", "value": "did not appear to inhibit"},
      {"measurement": "inhibition of forskolin-stimulated cAMP formation", "setting": "[7]", "value": "did not appear to inhibit"},
      {"measurement": "inhibition of forskolin-stimulated cAMP formation", "setting": "[8]", "value": "did not appear to inhibit"}
    ]}
  ]
}
